Measured values as given in article PMC7501296, “Rapid and direct control of target protein levels with VHL-recruiting dTAG molecules” (Nature Communications, 2020).
Values joined by “and” are separate entries in the source; they are usually repeats but may differ in a detail not shown here. Identical values can stand only once.

Key:
luciferase-FKBP12^F36V = target: T1, luciferase-FKBP12^F36V (Homo sapiens, UniProt P62942, F37V); assay: Pharmacodynamic evaluation: bioluminescence of MV4;11 luc-FKBP12F36V cells in mice; type: in vivo, mice (NSG); design: Total flux for each mouse: unit not given here; details: for Total flux for each mouse: single mice
T1 construct: luciferase (fusion partner); expressed in transfected cells; host or cells: MV4;11 cells transplanted into NSG mice
T1 sequence (P62942 2-108 F37V limits assumed): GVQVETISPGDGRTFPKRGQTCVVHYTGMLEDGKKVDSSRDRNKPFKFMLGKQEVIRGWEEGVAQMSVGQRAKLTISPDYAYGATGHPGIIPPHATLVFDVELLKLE
Excerpt: For IP injections, dTAG-13 and dTAG^V-1 were formulated by dissolving into DMSO and then diluting with 20% solutol (Sigma): 0.9% sterile saline (Moltox) (w:v) with the final formulation containing 5% DMSO. […] Formulations were stable at room temperature for 7 days. For IV injections, dTAG-13 and dTAG^V-1 were formulated by dissolving into DMSO and then diluting with 5% solutol (Sigma): 0.9% sterile saline (Moltox) (w:v) with the final formulation containing 5% DMSO.
All procedures for PD studies were compliant with ethical regulations for animal testing and research, and were approved by and performed in accordance with standards of the IACUC at Dana–Farber Cancer Institute. Housing conditions for mice at Dana–Farber Cancer Institute were as follows: lights on = 6 AM, lights off = 6 PM, average ambient temperature = 72 °F, and average humidity = 35–55%. Evaluation of degradation of luciferase in vivo was performed using MV4;11 luc-FKBP12^F36V cells and bioluminescent measurements[6],[48]. In brief, 250,000 viable MV4;11 luc-FKBP12^F36V cells were transplanted by tail-vein injection in 8-week-old immunocompromised female mice (NOD.Cg-Prkdc^scidIl2rg^tm1Wjl/SzJ, NSG; Jackson Laboratory, #005557). Bioluminescent measurements were performed following IP injection of 75 mg kg^−1 D-Luciferin (Promega). Mice were then anesthetized with 2−3% isoflurane, imaged on an IVIS Spectrum (Caliper Life Sciences), and total body bioluminescence was determined using a standardized region of interest. Two and seven days after tail-vein injection, bioluminescent measurements were performed to confirm engraftment. […] For treatments, compounds were formulated as described above, administered via IP injection and bioluminescent measurements were performed daily as described in Fig. 2d, beginning 8 days after tail-vein injection.

[1] = test system: PATU-8902 FKBP12^F36V-KRAS^G12V; KRAS^-/- clone; assay: Antiproliferation, PATU-8902 FKBP12F36V-KRASG12V; KRAS-/- clone, 2D-monolayer (CellTiter-Glo); type: cell-based
[2] = test system: PATU-8902 LACZ-FKBP12^F36V clone; assay: Antiproliferation, PATU-8902 LACZ-FKBP12F36V clone, 2D-monolayer (CellTiter-Glo); type: cell-based
Procedure, shortened: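 Viability of cells grown as 2D-adherent monolayers was determined with the CellTiter-Glo luminescent reagent (Promega). Luminescence signals were read on either an Envision 2104 plate reader (PerkinElmer) or a Fluostar Omega Reader (BMG Labtech), and the resulting data were processed and analyzed in GraphPad PRISM v8 software.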

FKBP12^F36V-Nluc = target: T2, FKBP12^F36V-Nluc (Homo sapiens, UniProt P62942, F37V); assay: FKBP12F36V-Nluc dual luciferase assay (293FT); type: cell-based; details: 293FT FKBP12F36V-Nluc, 24 h
T2 construct: expressed in transfected cells; host or cells: 293FT
T2 sequence (P62942 2-108 F37V limits assumed): as above
Procedure, shortened: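 293FT cells expressing FKBP12^WT-Nluc or FKBP12^F36V-Nluc with Fluc were treated with compound for 24 h at 37 °C. Fluc, then Nluc, luminescence was read with Dual-Glo reagents. Values are DMSO-normalised Nluc/Fluc ratios.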

[3] = test system: PATU-8902 LACZ-FKBP12^F36V clone; assay: Antiproliferation, PATU-8902 LACZ-FKBP12F36V clone, 3D-spheroid (CellTiter-Glo); type: cell-based
Procedure, shortened: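 Viability of cells grown as ultra-low adherent 3D-spheroids was determined with the CellTiter-Glo reagent (Promega). Luminescence was read on either an Envision 2104 plate reader (PerkinElmer) or a Fluostar Omega Reader (BMG Labtech). The resulting data were analyzed with GraphPad PRISM v8.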

[4] = log10[compound] (M) -5.69897, replicate values
[5] = log10[compound] (M) -6.19897, replicate values
[6] = log10[compound] (M) -6.69897, replicate values
[7] = log10[compound] (M) -7.19897, replicate values
[8] = log10[compound] (M) -7.69897, replicate values
[9] = log10[compound] (M) -8.19897, replicate values
[10] = log10[compound] (M) -8.69897, replicate values
[11] = log10[compound] (M) -9.19897, replicate values
[12] = log10[compound] (M) -9.69897, replicate values
[13] = log10[compound] (M) -10.199, replicate values

CC[C@H](C(=O)N1CCCC[C@H]1C(=O)O[C@H](CCc1ccc(OC)c(OC)c1)c1ccccc1OCC(=O)NCCCCCCOc1cccc2c1C(=O)N(C1CCC(=O)NC1=O)C2=O)c1cc(OC)c(OC)c(OC)c1 (stereo partly shown) [dTAG-13]
Bioluminescent signal 4 h after each of the three administrations (luciferase-FKBP12^F36V; 35 mg kg^−1 IP): Consistent loss of bioluminescent signal | Total flux for each mouse (luciferase-FKBP12^F36V; Baseline (day 0, before treatment), MV4;11 luc-FKBP12F36V): 4289000 and 889100 and 3230000 and 316100 and 985400 | Total flux for each mouse (luciferase-FKBP12^F36V; No treatment (day 4), 28 h after third and final treatment): 49160000 and 34070000 and 76150000 and 45320000 | Total flux for each mouse (luciferase-FKBP12^F36V; Treatment #1 (day 1), 4 h after 35 mg kg^−1 IP): 6613000 and 7583000 and 6309000 and 11170000 and 4709000 | Total flux for each mouse (luciferase-FKBP12^F36V; Treatment #2 (day 2), 4 h after 35 mg kg^−1 IP): 5587000 and 3752000 and 2682000 and 8076000 and 3987000 | Total flux for each mouse (luciferase-FKBP12^F36V; Treatment #3 (day 3), 4 h after 35 mg kg^−1 IP): 7807000 and 6324000 and 1630000 and 11780000 and 6875000 | DMSO-normalized antiproliferation [1, 4]: 10.9257 and 6.898 and 8.446 and 8.371 | DMSO-normalized antiproliferation [1, 5]: 11.932 and 10.4461 and 13.2552 and 12.7525 | DMSO-normalized antiproliferation [1, 6]: 9.655 and 9.596 and 10.3089 and 13.0861 | DMSO-normalized antiproliferation [1, 7]: 15.4438 and 14.4907 and 17.4502 and 15.1305 | DMSO-normalized antiproliferation [1, 8]: 47.914 and 33.2029 and 20.7399 and 31.0479 | DMSO-normalized antiproliferation [1, 9]: 58.9433 and 77.5971 and 44.7261 and 57.0103 | DMSO-normalized antiproliferation [1, 10]: 103.967 and 74.9703 and 94.8172 and 78.6857 | DMSO-normalized antiproliferation [1, 11]: 94.4313 and 115.825 and 99.9239 and 85.5403 | DMSO-normalized antiproliferation [1, 12]: 101.606 and 85.9324 and 94.5986 and 110.248 | DMSO-normalized antiproliferation [1, 13]: 88.9654 and 100.345 and 66.0988 and 85.3394 | DMSO-normalized antiproliferation [2, 4]: 79.0923 and 75.109 and 80.3774 and 113.638 | DMSO-normalized antiproliferation [2, 5]: 118.691 and 93.7383 and 99.9076 and 98.4249 | DMSO-normalized antiproliferation [2, 6]: 98.3156 and 96.4487 and 164.194 and 141.704 | DMSO-normalized antiproliferation [2, 7]: 94.7264 and 123.324 and 123.729 and 139.928 | DMSO-normalized antiproliferation [2, 8]: 115.53 and 113.276 and 121.811 and 92.6376 | DMSO-normalized antiproliferation [2, 9]: 99.0586 and 98.4337 and 106.76 and 114.872 | DMSO-normalized antiproliferation [2, 10]: 84.0085 and 109.147 and 95.5423 and 106.301 | DMSO-normalized antiproliferation [2, 11]: 117.815 and 105.751 and 92.5029 and 116.86 | DMSO-normalized antiproliferation [2, 12]: 127.696 and 110.786 and 93.8321 and 122.663 | DMSO-normalized antiproliferation [2, 13]: 105.1 and 122.023 and 107.287 and 98.2283 | DMSO-normalized ratio of Nluc/Fluc signal (FKBP12^F36V-Nluc; log10[compound] (M) -5.30103, single replicates): 16.9532 and 13.2908 and 14.9671 and 13.7454 | DMSO-normalized ratio of Nluc/Fluc signal (FKBP12^F36V-Nluc; log10[compound] (M) -5.80103, single replicates): 7.24 and 7.457 and 10.3426 and 8.644 | DMSO-normalized ratio of Nluc/Fluc signal (FKBP12^F36V-Nluc; log10[compound] (M) -6.30103, single replicates): 8.366 and 8.818 and 6.862 and 6.126 | DMSO-normalized ratio of Nluc/Fluc signal (FKBP12^F36V-Nluc; log10[compound] (M) -6.80103, single replicates): 7.33 and 5.168 and 6.329 and 6.447 | DMSO-normalized ratio of Nluc/Fluc signal (FKBP12^F36V-Nluc; log10[compound] (M) -7.30103, single replicates): 10.0232 and 16.06 and 10.9144 and 8.614 | DMSO-normalized ratio of Nluc/Fluc signal (FKBP12^F36V-Nluc; log10[compound] (M) -7.80103, single replicates): 17.0708 and 14.82 and 12.6407 and 10.0196 | DMSO-normalized ratio of Nluc/Fluc signal (FKBP12^F36V-Nluc; log10[compound] (M) -8.30103, single replicates): 27.5948 and 22.2337 and 28.8782 and 22.7323 | DMSO-normalized ratio of Nluc/Fluc signal (FKBP12^F36V-Nluc; log10[compound] (M) -8.80103, single replicates): 41.1668 and 39.5241 and 40.8834 and 34.8862 | DMSO-normalized ratio of Nluc/Fluc signal (FKBP12^F36V-Nluc; log10[compound] (M) -9.30103, single replicates): 85.0231 and 74.0396 and 80.0349 and 60.0307 | DMSO-normalized ratio of Nluc/Fluc signal (FKBP12^F36V-Nluc; log10[compound] (M) -9.80103, single replicates): 71.5411 and 59.8417 and 77.3242 and 60.4301 | DMSO-normalized antiproliferation [3, 4]: 83.5347 and 77.755 and 106.784 and 100.802 | DMSO-normalized antiproliferation [3, 5]: 108.447 and 95.2018 and 93.9194 and 111.801 | DMSO-normalized antiproliferation [3, 6]: 105.932 and 113.702 and 105.116 and 107.515 | DMSO-normalized antiproliferation [3, 7]: 104.318 and 154.981 and 104.434 and 95.3632 | DMSO-normalized antiproliferation [3, 8]: 98.1432 and 118.54 and 142.668 and 106.77 | DMSO-normalized antiproliferation [3, 9]: 105.712 and 98.6185 and 105.909 and 92.2738 | DMSO-normalized antiproliferation [3, 10]: 108.958 and 119.361 and 97.2958 and 103.25 | DMSO-normalized antiproliferation [3, 11]: 89.1127 and 99.6498 and 108.86 and 111.989 | DMSO-normalized antiproliferation [3, 12]: 97.9056 and 108.178 and 110.59 and 112.891 | DMSO-normalized antiproliferation [3, 13]: 91.8389 and 92.6594 and 105.927 and 94.166
